# Data published in ChEMBL document CHEMBL1147298, “An antitumor principle from Suillus granulatus” (1989).
# How the values were obtained:
# Assay type in all cases: functional
# KB = assay: Cytotoxicity against human KB cells; conditions: read-out: ID50 (the source's name)
# P388 [1] = assay: Cytotoxicity against mouse P388 cells; conditions: read-out: ID50 (the source's name)
# P388 [2] = assay: In vivo antitumor activity against mouse P388 cells at 5 mg/kg, ip administered on 1,5 and 9 days relative to control; conditions: route intraperitoneal
# [3] = Cytotoxicity against human NSCLC-N6 cells; conditions: read-out: ID50 (the source's name)
# P388 [4] = assay: In vivo antitumor activity against mouse P388 cells at 10 mg/kg, ip administered on 1,5 and 9 days relative to control; conditions: route intraperitoneal
smiles,measurement,setting,value
CC(=O)Oc1ccc(OC(C)=O)c(OC(C)=O)c1C/C=C(\C)CC/C=C(\C)CC/C=C(\C)CCC=C(C)C,IC50,KB,1.8 µg/mL
CC(=O)Oc1ccc(O)c(O)c1C/C=C(\C)CC/C=C(\C)CC/C=C(\C)CCC=C(C)C [TETRAPRENYLPHENOLSUILLIN],IC50,P388 [1],0.85 µg/mL
same,T/C,P388 [2],151%
same,IC50,KB,0.69 µg/mL
same,IC50,[3],1.02 µg/mL
same,T/C,P388 [4],160%
